Read-outs that look alike come from different tables or passages of the source.
How the values were obtained:
[1] = system: Saccharomyces cerevisiae α-glucosidase; test: In vitro α-glucosidase inhibition assay (BioVision kit, pNPG); assay type: biochemical; conditions: for %inh α-glucosidase: Table 2S
Description: Using BioVision’s α-Glucosidase Inhibitor Screening Kit (Colorimetric) (Catalogue #K938-100) at (OD: 410 nm), the in vitro α-glucosidase suppression effect for the designed 1,2,4-triazole derivatives 3, 4, 6, 8, 9, and 10 was carried out. The results were analyzed on a multi-well spectrophotometer (ELISA reader) using a 96-well microplate in compliance with the manufacturer’s instructions as previously described[49],[50]. The α-glucosidase inhibition assay was conducted using Saccharomyces cerevisiae α-glucosidase (0.5–1 U/mL in phosphate buffer, pH 6.8). Test compounds (63–1000 µg/mL) were pre-incubated with the enzyme at 37 °C for 10 min, followed by addition of pNPG (5 mM) and further incubation for 30 min. The reaction was stopped with 0.2 M Na2CO3, and absorbance was measured at 405 nm. […] Inhibition (%) was calculated as above, and IC50 values were derived from nonlinear regression analysis Table 2S.

[2] = target: T1, porcine pancreatic α-amylase (Sus scrofa, UniProt P00690); test: In vitro α-amylase inhibition assay (BioVision kit / modified DNSA method); assay type: biochemical; conditions: for %inh α-amylase: Table 1S
T1 construct: purchased BioVision K482-100
T1 sequence (P00690 16-511): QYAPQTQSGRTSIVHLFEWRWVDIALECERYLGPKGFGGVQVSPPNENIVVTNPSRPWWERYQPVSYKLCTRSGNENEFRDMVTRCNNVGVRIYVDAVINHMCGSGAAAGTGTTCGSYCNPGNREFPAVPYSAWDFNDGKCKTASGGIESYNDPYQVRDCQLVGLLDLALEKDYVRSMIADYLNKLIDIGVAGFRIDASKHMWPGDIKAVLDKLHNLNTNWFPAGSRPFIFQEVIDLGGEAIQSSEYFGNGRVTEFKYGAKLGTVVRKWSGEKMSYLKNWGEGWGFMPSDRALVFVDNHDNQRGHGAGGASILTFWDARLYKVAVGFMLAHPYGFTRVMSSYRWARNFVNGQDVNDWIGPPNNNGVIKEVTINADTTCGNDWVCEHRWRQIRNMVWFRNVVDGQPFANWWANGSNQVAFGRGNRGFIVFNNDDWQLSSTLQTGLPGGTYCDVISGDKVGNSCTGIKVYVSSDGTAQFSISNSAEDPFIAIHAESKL
Description: The α-amylase inhibition assay was performed using a modified DNSA (3,5-dinitrosalicylic acid) method. Test compounds (dissolved in DMSO) were serially diluted (100, 10, 1, 0.1, and 0.01 µg/mL) and pre-incubated with porcine pancreatic α-amylase (0.5 U/mL in phosphate buffer, pH 6.8) at 37 °C for 10 min. Starch solution (1% w/v) was added, and the reaction proceeded for 30 min at 37 °C. The reaction was terminated by adding DNSA reagent, followed by heating at 85 °C for 10 min. Absorbance was measured at 540 nm using a microplate reader. […] The percentage inhibition was calculated as: [(Acontrol–Asample)/Acontrol] × 100, where Acontrol represents enzyme activity without inhibitor. IC50 values were determined from dose-response curves using GraphPad Prism. Kinetic parameters (KActivity) were derived from ∆RFU (Relative Fluorescence Units) and slope values Table 1S.

[3] = read-out: α-amylase inhibition IC50 (converted)
[4] = table printed in Fig. 9, read-out: α- Amylase IC50 (converted)

%inh α-glucosidase ([1]; conc 63 (µg/mL))	%inh α-glucosidase ([1]; conc 125 (µg/mL))	%inh α-glucosidase ([1]; conc 250 (µg/mL))	%inh α-glucosidase ([1]; conc 500 (µg/mL))	%inh α-glucosidase ([1]; conc 1000 (µg/mL))	%inh α-amylase ([2]; conc 0.01 (µg/mL))	%inh α-amylase ([2]; conc 0.1 (µg/mL))	%inh α-amylase ([2]; conc 1 (µg/mL))	%inh α-amylase ([2]; conc 10 (µg/mL))	%inh α-amylase ([2]; conc 100 (µg/mL))	IC50 [2, 3]	IC50 [2, 4]	α-glucosidase inhibition IC50 [1]	SMILES
15.7%	30%	40.9%	58.5%	77%	19.9%	36.7%	58.4%	83.4%	92.3%	0.859 µM	0.876 µM	0.36 ± 0.01 µg/mL	COc1ccc(Cc2nnc(SCC(=O)Nc3ccccc3)n2-c2ccccc2)cc1 [Compound 3, 2-((5-(4-methoxybenzyl)-4-phenyl-4H-1,2,4-triazol-3-yl)thio)-N-phenylacetamide]
19.9%	36.6%	50.9%	63.6%	82.4%	25.8%	44.6%	62.6%	85.7%	93.1%	0.402 µM	0.419 µM	0.27 ± 0.01 µg/mL	COc1ccc(Cc2nnc(SCC(=O)Nc3ccc(C(C)=O)cc3)n2-c2ccccc2)cc1 [Compound 4, N-(4-acetylphenyl)-2-((5-(4-methoxybenzyl)-4-phenyl-4H-1,2,4-triazol-3-yl)thio)acetamide]
1.67%	4.01%	7.55%	28.9%	69.2%	14.4%	19.9%	40.6%	74.1%	91.3%	2.61 µM	2.62 µM	0.83 ± 0.03 µg/mL	COc1ccc(Cc2nnc(SCC(=O)Nc3ccc(C(=O)O)cc3)n2-c2ccccc2)cc1 [Compound 6, 4-(2-((5-(4-methoxybenzyl)-4-phenyl-4H-1,2,4-triazol-3-yl)thio)acetamido)benzoic acid]
1.46%	5.94%	18.4%	38.9%	67.3%	12%	29.3%	41.6%	63.1%	88.7%	2.89 µM	2.89 µM	0.67 ± 0.02 µg/mL	CCOC(=O)c1ccc(NC(=O)CSc2nnc(Cc3ccc(OC)cc3)n2-c2ccccc2)cc1 [Compound 8, Ethyl 4-(2-((5-(4-methoxybenzyl)-4-phenyl-4H-1,2,4-triazol-3-yl)thio)acetamido)benzoate]
4.22%	7.76%	14%	31.9%	68.2%	20.6%	35.3%	48.3%	73.3%	90%	1.41 µM	1.42 µM	0.77 ± 0.02 µg/mL	COc1ccc(Cc2nnc(SCC(=O)Nc3ccc(O)cc3)n2-c2ccccc2)cc1 [Compound 9, N-(4-hydroxyphenyl)-2-((5-(4-methoxybenzyl)-4-phenyl-4H-1,2,4-triazol-3-yl)thio)acetamide]
16.3%	25.1%	39.9%	58%	82.8%	29.2%	41.2%	56.1%	77.6%	92.3%	0.51 µM	0.528 µM	0.31 ± 0.01 µg/mL	COc1ccc(Cc2nnc(SCC(=O)Nc3ccc(Br)cc3)n2-c2ccccc2)cc1 [Compound 10, N-(4-bromophenyl)-2-((5-(4-methoxybenzyl)-4-phenyl-4H-1,2,4-triazol-3-yl)thio)acetamide]

SMILES	%inh α-glucosidase ([1]; conc 63 (µg/mL))	%inh α-glucosidase ([1]; conc 125 (µg/mL))	%inh α-glucosidase ([1]; conc 250 (µg/mL))	%inh α-glucosidase ([1]; conc 500 (µg/mL))	%inh α-glucosidase ([1]; conc 1000 (µg/mL))	%inh α-amylase ([2]; conc 0.01 (µg/mL))	%inh α-amylase ([2]; conc 0.1 (µg/mL))	%inh α-amylase ([2]; conc 1 (µg/mL))	%inh α-amylase ([2]; conc 10 (µg/mL))	%inh α-amylase ([2]; conc 100 (µg/mL))	IC50 [2, 3]	IC50 [2, 4]	α-glucosidase inhibition IC50 [1]
C[C@H]1O[C@H](O[C@H]2[C@H](O)[C@@H](O)[C@@H](O[C@H]3[C@H](O)[C@@H](O)C(O)O[C@@H]3CO)O[C@@H]2CO)[C@H](O)[C@@H](O)[C@@H]1N[C@H]1C=C(CO)[C@@H](O)[C@H](O)[C@H]1O (some centres unmarked) [Acarbose, reference compound]	8.91%	28%	40.6%	58.6%	76.8%								

— paper PMC12297423, “Dual α-amylase and α-glucosidase inhibition by 1,2,4-triazole derivatives for diabetes treatment” (Scientific Reports, 2025)
